# Data: patent publication US6812226B2, “P2X7 receptor antagonists for use in the treatment of inflammatory, immune or cardiovascular disease” (AstraZeneca AB, priority 1999, dated 2004)
row,SMILES,melting point
1,CC(C)NC(=O)c1ccc(N2CCC(N3C(=O)OCc4ccccc43)CC2)c([N+](=O)[O-])c1,193 to 195 °C
2,CC(C)NS(=O)(=O)c1ccc(N2CCC(N3C(=O)OCc4ccccc43)CC2)c([N+](=O)[O-])c1,168 °C
3,CC(C)NC(=O)c1cnc(N2CCC(N3C(=O)OCc4ccccc43)CC2)nc1C(F)(F)F,217 to 219 °C
4,Nc1ccc(N2CCC(N3C(=O)OCc4ccccc43)CC2)c(Cl)c1,158 °C
5,CC(C)NC(=O)c1ccc(N2CCC(N3C(=O)OCc4ccccc43)CC2)nn1,120 °C
6,NC(=O)c1ccccc1C(=O)c1ccc(N2CCC(N3C(=O)OCc4ccccc43)CC2)c([N+](=O)[O-])c1,180 to 182 °C
7,COC(=O)c1ccccc1C(=O)c1ccc(N2CCC(N3C(=O)OCc4ccccc43)CC2)c([N+](=O)[O-])c1,177 to 179 °C
8,O=C(O)c1ccccc1C(=O)c1ccc(N2CCC(N3C(=O)CCc4ccccc43)CC2)c([N+](=O)[O-])c1,201 to 203 °C
9,COC(=O)c1ccccc1C(=O)c1ccc(N2CCC(N3C(=O)OCc4ccc(Cl)cc43)CC2)c([N+](=O)[O-])c1,90 to 92 °C
10,CC(C)S(=O)(=O)Nc1ccc(N2CCC(N3C(=O)OCc4ccccc43)CC2)c(Cl)c1,175 °C
11,O=C1OCc2ccccc2N1C1CCN(c2ccc(NCc3ncc[nH]3)cc2Cl)CC1,222 to 224 °C
12,CC(C)NC(=O)c1ccc(N2CCC(N3C(=O)OCc4ccccc43)CC2)c(S(C)(=O)=O)c1,240 to 242 °C
13,CC(C)C(=O)Nc1ccc(N2CCC(N3C(=O)OCc4ccccc43)CC2)c(Cl)c1,228 °C
14,"CC(C)NC(=O)c1cnc(N2CCC(n3c(=O)oc4ccccc43)CC2)c(Cl)c1 [Example 166, 5-Chloro-N-(1-methylethyl)-6-[4-(2-oxo-1,3-benzoxazol-3(2H)-yl)piperidin-1-yl]pyridine-3-carboxantide]",162 to 168 °C
15,CC(C)NC(=O)c1cnc(N2CCC(N3C(=O)OCc4ccccc43)CC2)nc1,236 to 239 °C
16,CC(C)NC(=O)c1csc(N2CCC(N3C(=O)OCc4ccccc43)CC2)n1,214 to 215 °C
17,COCCNC(=O)c1ccc(N2CCC(N3C(=O)OCc4ccccc43)CC2)c([N+](=O)[O-])c1,192 to 193 °C
18,O=C(O)c1ccccc1C(=O)c1ccc(N2CCC(N3C(=O)OCc4ccccc43)CC2)c([N+](=O)[O-])c1,243 to 244 °C
19,CN1CCC[C@H]1C(=O)Nc1ccc(N2CCC(N3C(=O)OCc4ccccc43)CC2)c(Cl)c1,155 °C
20,O=C(c1ccccc1)c1ccc(N2CCC(N3C(=O)OCc4ccccc43)CC2)c([N+](=O)[O-])c1,272 to 273 °C

# Continued, values first:
row,melting point,SMILES
1,195 °C,CC(C)NC(=O)c1cnc(N2CC[C@H](N3C(=O)OCc4ccccc43)[C@@H](C)C2)c(Cl)c1.Cl
2,125 to 128 °C,CC(CO)NC(=O)c1cnc(N2CCC(N3C(=O)OCc4ccccc43)CC2)c(Cl)c1 (centres unmarked)
3,140 to 143 °C,CC(C)[C@@H](NC(=O)c1cnc(N2CCC(N3C(=O)OCc4ccccc43)CC2)c(Cl)c1)C(N)=O
4,85 to 88 °C,CC(C)NC(=O)c1cnc(N2CCC(N3C(=O)COc4ccccc43)CC2)c(Cl)c1
5,139 to 142 °C,CC(C)C[C@H](NC(=O)c1cnc(N2CCC(N3C(=O)OCc4ccccc43)CC2)c(Cl)c1)C(N)=O
6,139 to 142 °C,CC(C)C[C@@H](NC(=O)c1cnc(N2CCC(N3C(=O)OCc4ccccc43)CC2)c(Cl)c1)C(N)=O
7,159 to 162 °C,N#CC(NC(=O)c1cnc(N2CCC(N3C(=O)OCc4ccccc43)CC2)c(Cl)c1)C(N)=O (centres unmarked)
8,200 °C,CC(C)NC(=O)c1ccc(N2CCC(N3C(=O)OCc4ccccc43)CC2)c(C#N)c1
9,135 to 138 °C,C#CC(C)(C)NC(=O)c1cnc(N2CCC(N3C(=O)OCc4ccccc43)CC2)c(Cl)c1
